How the values were obtained:
[1] = target: parasite TGR (thioredoxin reductase activity) (Schistosoma mansoni, UniProt Q962Y6); assay: Thioredoxin reductase activity of TGR in homogenates of treated cultured worms; settings: 10 μM, 18 hrs treatment of cultured worms
Method: (§1) Freshly perfused adult S. mansoni worms were cultured with 10 μM furoxan or 50 μM NBPPTA. […] The activity of lactate dehydrogenase was monitored as a control enzyme.
(§2) Enzyme assays were performed at 25° C. in 0.1 M potassium phosphate, pH 7.4, 10 mM EDTA. Thioredoxin reductase activity of TGR was determined using either 3 mM 5,5′ dithiobis(2-nitrobenzoic acid) (DTNB, Ellman's reagent) or 16 μM recombinant S. mansoni thioredoxin-1 (Alger et al 2002). One enzyme unit was defined as the NADPH-dependent production of 2 μmol of 2-nitro-5-thiobenzoic acid per minute using ε412 nm=13.6 mM^−1 cm^−1 or the consumption of 1 μmol of NADPH (ε340 nm=6.22 mM^−1 cm^−1) during the first three minutes. Glutathione reductase activity was determined with 100 μM GSH disulfide and 100 μM NADPH by measuring the decrease in A340 nm due to consumption of NADPH (ε340 nm=6.22 mM^−1 cm^−1) during the first three minutes. Activity of the control enzyme lactate dehydrogenase (LDH) was determined with 10 μM sodium pyruvate and 100 μM NADPH. Each assay was done in triplicate and each experiment was repeated three times.
(§3) Compounds were dissolved in dimethylsulfoxide (DMSO) and added at concentrations indicated to freshly perfused worms in RPMI1640 containing 25 mM Hepes, pH 7, 150 units/ml penicillin, 125 μg/ml streptomycin, and 10% fetal calf serum (Cell Grow, Fisher). […]

[2] = test system: parasite lactate dehydrogenase; assay: Lactate dehydrogenase control enzyme activity in homogenates of treated worms; assay type: cell-based, Schistosoma mansoni; settings: 10 μM, treated worm homogenates
TGR = TGR (Schistosoma mansoni, UniProt Q962Y6); assay: Mode of TGR inhibition; settings: through release of NO
Chain of TGR (Q962Y6 1-598): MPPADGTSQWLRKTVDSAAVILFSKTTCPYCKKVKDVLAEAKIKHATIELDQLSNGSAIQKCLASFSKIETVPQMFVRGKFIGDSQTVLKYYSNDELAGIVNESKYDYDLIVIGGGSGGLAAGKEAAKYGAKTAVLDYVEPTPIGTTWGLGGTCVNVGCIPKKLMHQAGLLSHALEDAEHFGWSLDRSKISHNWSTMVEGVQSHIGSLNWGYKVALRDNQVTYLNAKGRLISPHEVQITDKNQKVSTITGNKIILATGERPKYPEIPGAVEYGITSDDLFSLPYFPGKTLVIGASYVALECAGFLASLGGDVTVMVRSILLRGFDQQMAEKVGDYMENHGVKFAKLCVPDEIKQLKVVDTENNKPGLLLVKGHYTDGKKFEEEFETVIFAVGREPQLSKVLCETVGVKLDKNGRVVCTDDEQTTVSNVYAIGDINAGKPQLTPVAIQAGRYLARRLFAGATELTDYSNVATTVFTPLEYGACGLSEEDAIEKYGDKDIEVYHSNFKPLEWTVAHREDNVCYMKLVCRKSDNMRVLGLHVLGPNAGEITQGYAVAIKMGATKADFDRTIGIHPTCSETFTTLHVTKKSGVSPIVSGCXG

[3] = target: recombinant S. mansoni TGR (Schistosoma mansoni, UniProt Q962Y6); assay: NO release with recombinant SmTGR (ABTS oxidation); assay type: biochemical; settings: 10 μM oxadiazole, 15 nM SmTGR, P<0.05
Chain of recombinant S. mansoni TGR (Q962Y6 1-598): as above
Method: Because oxadiazoles are known to release nitric oxide (NO) at physiological levels of thiols, we examined if NO release played a part in their mechanism of action (TGR inhibition and worm killing). […] The NO releasing capability of oxadiazoles was next tested with recombinant S. mansoni TGR enzyme with and without NADPH.
NO release by different oxadiazoles was determined by 2,2′-azino-bis(3-ethylbenzthiazoline-6-sulphonic acid) [ABTS, Sigma] oxidation method [Nims et al, Methods 7, 48-54; 1995]. Different oxadiazoles at 10 μM were incubated at RT for 50 minutes with 15 nM recombinant SmTGR in the presence or absence of 100 μM NADPH. The (oxadiazole+SmTGR/±NADPH) mixture was then added to an aerobic PBS, pH 7.4, containing 5 mM ABTS. The absorbance of the resulting green ABTS^+ were measured at A660. A conversion factor was calculated to adjust the readings from 1 ml reaction to 96-well plate. The concentrations of the released NO were calculated as a percentage of the added oxadiazoles. Each reaction was done in triplicate and the data is the average of three independent experiments. […] The slope of the regression line was calculated and used to recalculate the data at A660 in 200 μl reaction [Nims et al, Methods 7, 48-54; 1995].

adult S. mansoni worms [4] = assay: microbe, parasite or virus in culture; settings: Schistosoma mansoni
adult S. mansoni worms [5] = test system: adult S. mansoni worms
S. mansoni infected mice = assay: In vivo drug treatment of S. mansoni infected mice; parameters: species or system Schistosoma mansoni; settings: for decrease in worm burden vs control infected mice: perfusion day 49
[6] = test system: murine myeloma cell line SP2/0; assay: Cytotoxicity assay (sulforhodamine B); assay type: cell-based
Method: To examine if furoxan is tolerated by mammalian cells, we incubated the murine myeloma cell line SP2/0 with the drugs at given concentrations and monitored cell viability at 24 hr and 120 hr. At 120 hr in 2 μM furoxan ˜25% mortality of myeloma cells was observed compared to 100% mortality of adult S. mansoni worms at the same concentration. Myeloma cells tolerated furoxan at concentrations as high as 100 μM. Differential cytotoxicity of furoxan on the worm survival and myeloma cells were also seen after 24 hrs of drug application.
Cytotoxicity assays were performed using sulforhodamine B to determine cellular protein content. Murine myeloma cell line SP2/0 was cultured in 96-well microtiter plates containing 0.2 ml of RPMI-1640 per well at a cell density of 900 per well at 37° C. in 5% CO2. Cells were treated with drug concentrations (or drug carrier alone) for times as indicated. After treatment, cells were fixed with 10% TCA at 4° C. for 1 hr. Fixed cells were rinsed to remove fixative and then stained in 0.4% (wt/vol) sulforhodamine B (Sigma) in 1% acetic acid for 35 min. After washing with 1% acetic acid and dye extraction in 10 mM Tris (pH 10.5), plates were read at A564 nm. The A564 nm of drug-treated cells was compared to carrier-only-treated cells.

[7] = target: parasite TGR (GSH reductase activity) (Schistosoma mansoni, UniProt Q962Y6); assay: Glutathione reductase activity of TGR in homogenates of treated cultured worms; settings: 10 μM, 18 hrs treatment of cultured worms
Chain of parasite TGR (GSH reductase activity) (Q962Y6 1-598): as above
Method: as §1, §2, §3

[8] = 10 mg/kg once a day, 5 days, ip; cited from earlier work
[9] = test system: S. mansoni infections in mice; settings: juvenile liver parasites targeted, mouse model; cited from earlier work

Chain of parasite TGR (thioredoxin reductase activity) (Q962Y6 1-598): as above

## N#Cc1c(-c2ccccc2)no[n+]1[O-] [Analogue 9]
[1]
  reduction of thioredoxin reductase activity of parasite TGR vs carrier control: 83%
[2]
  activity of parasite lactate dehydrogenase vs carrier only treated worms: no significant change
TGR
  mode of inhibition of TGR: time-dependent irreversible inhibition
[3]; +NADPH
  NO release relative to the other oxadiazoles tested: 10 ×
[3]; −NADPH
  NO release relative to the other oxadiazoles tested: 3 ×
Adult S. mansoni worms [4]; 24 h, read-out: inhibition of motility of adult parasites
  inhibition at 1.87 µg/mL: 100%
Adult S. mansoni worms [4]; 120 h, read-out: mortality of adult S. mansoni worms
  mortality at 2 µM: 100%
Adult S. mansoni worms [5]; 0.38 μg/ml, longer times
  activity against adult parasites: active
Adult S. mansoni worms [5]; 2 μM
  time to kill worms: 120 h
Adult S. mansoni worms [5]; 10 μM furoxan with 100 μM carboxy-PTIO
  worm viability with NO scavenger: extended
Adult S. mansoni worms [5]; 10 μM, within 24 hr, axenically cultured adult worms
  parasite death: 100%
S. mansoni infected mice; 10 mg/kg, regardless of lifecycle stage
  reduction in worm burdens, all trials in mice: ≥ 89%
S. mansoni infected mice; early stage treatment (treatment 1), total from the eight mice infected
  adult parasites recovered: one
S. mansoni infected mice; treatment 1 (skin stage)
  liver egg granulomas: no signs of egg granulomas
S. mansoni infected mice; treatment 1 (skin stage), P<0.0001
  hepatomegaly vs control infected mice: reduction of hepatomegaly
S. mansoni infected mice; treatment 1: 10 mg/kg ip once daily x5 from day 1 after infection (skin stage)
  decrease in worm burden vs control infected mice: > 99%
S. mansoni infected mice; treatment 2 (juvenile liver stage)
  number of liver granulomas vs control infections: considerably reduced
S. mansoni infected mice; treatment 2 (juvenile liver stage), P<0.0001
  hepato- and splenomegaly vs control infected mice: dramatic reductions in hepato- and splenomegaly
S. mansoni infected mice; treatment 2: 10 mg/kg ip once daily x5 from day 23 (juvenile liver stage)
  decrease in worm burden vs control infected mice: 89%
S. mansoni infected mice; treatment 3 (adult stage)
  egg-induced liver granulomas vs control group: greatly reduced number
S. mansoni infected mice; treatment 3 (adult stage), P<0.0001
  hepatomegaly vs control group: dramatic reduction in hepatomegaly
S. mansoni infected mice; treatment 3: 10 mg/kg ip once daily x5 from day 37 (adult egg laying)
  decrease in worm burden vs control infected mice: 94%
[6]
  concentration tolerated by myeloma cells: ≤ 100 µM
[6]; 2 μM, 120 hr
  mortality of myeloma cells: ~25%
[7]
  reduction of GSH reductase activity of parasite TGR vs carrier control: 93%
[8]
  tolerability in mice: well tolerated

## O=C(C1CCCCC1)N1CC(=O)N2CCc3ccccc3C2C1 (stereo not drawn) [PZQ, praziquantel]
[9]
  reduction in worm burdens: 25-30%
